# Laboratory results published in patent US20070154567A1, “Use of mercury to treat cancer” (priority 2006, published 2007).
# System: non-operable neck tumor of unknown origin and metastasis in the lungs
# Assay: Oral inorganic mercury (II) treatment of a pet English Setter: blood data and clinical follow-up
# Format: in vivo, dog
# Parameters: Anion Gap / MCV / MCH / MCHC / Neutrophils, absolute / Lymphocytes, absolute / Monocytes, absolute / Eosinophils, absolute: unit not given here
# Description: A 10 years old female English Setter was diagnosed with a non-operable neck tumor of unknown origin and metastasis in the lungs.
# The dog completed 130-day inorganic mercury (II) treatment that consisted of 58 days of the first treatment course followed by 20 days of an interval period, and the 52-day second treatment course. The formulation contained 1 mM mercury acetate in 20 mM sodium acetate buffer, pH 4.5, with 100 mM sucrose and 150 mM sodium chloride additives. It was introduced orally to the dog three times a day at 0.5 micromole Hg^2+/kg/day. At the start of the treatment, the dog was in poor health condition: was easily tired, had difficulty to swallow, heavy breathing due to lung metastasis. The tumor was easily palpated at the neck. […] These changes were correlated with reduction in ALP levels (Days 5, 22, 40, 65).
# During the second treatment course the progression of the disease was slowed down, but not to the degree observed during the first treatment course. The treatment was stopped at Day 128, and the dog was euthanized 2-3 weeks later.
smiles,measurement,setting,value
"CC(=O)[O-].CC(=O)[O-].[Hg+2] [inorganic mercury (II), mercury acetate]",ALT (SGPT),Day 5,84 U/L
same,AST (SGOT),Day 5,22 U/L
same,Albumin,Day 5,3.3 g/dL
same,Albumin/Globulin Ratio,Day 5,1.1
same,Alkaline Phosphatase (ALP),Day 5,204 U/L
same,Amylase,Day 5,771 U/L
same,Anion Gap,Day 5,26
same,BUN,Day 5,39 mg/dL
same,BUN/Creatinine Ratio,Day 5,43.3
same,CPK,Day 5,84 U/L
same,Calcium,Day 5,11.7 mg/dL
same,Chloride,Day 5,113 mE/L
same,Cholesterol,Day 5,269 mg/dL
same,Creatinine,Day 5,0.9 mg/dL
same,Direct Billirubin,Day 5,0 mg/dL
same,"Eosinophils, (%)",Day 5,4%
same,"Eosinophils, absolute",Day 5,576
same,GGT,Day 5,2 U/L
same,Globulin,Day 5,2.9 g/dL
same,Glucose,Day 5,116 mg/dL
same,Hematocrit,Day 5,41.8%
same,Hemoglobin,Day 5,14.5 g/dL
same,Indirect Billirubin,Day 5,0.2 mg/dL
same,Lipase,Day 5,799 U/L
same,"Lymphocytes, (%)",Day 5,48%
same,"Lymphocytes, absolute",Day 5,6912
same,MCH,Day 5,24.5
same,MCHC,Day 5,34.7
same,MCV,Day 5,71
same,"Monocytes, (%)",Day 5,6%
same,"Monocytes, absolute",Day 5,864
same,Na/K ratio,Day 5,32
same,"Neutrophils, (%)",Day 5,41%
same,"Neutrophils, absolute",Day 5,5904
same,Phosphorus,Day 5,5.2 mg/dL
same,Platelet count,Day 5,534 10^3/microl
same,Potassium,Day 5,4.8 mE/L
same,RBC,Day 5,5.9 10^6/microl
same,Sodium,Day 5,152 mE/L
same,T4,Day 5,1.4 µg/dL
same,Total Billirubin,Day 5,0.2 mg/dL
same,Total Protein,Day 5,6.2 g/dL
same,WBC,Day 5,14.4 10^3/microl
same,tCO2,Day 5,18 mEq/L
same,ALT (SGPT),Day 22,84 U/L
same,AST (SGOT),Day 22,13 U/L
same,Albumin,Day 22,3.3 g/dL
same,Albumin/Globulin Ratio,Day 22,1.2
same,Alkaline Phosphatase (ALP),Day 22,142 U/L
same,Amylase,Day 22,738 U/L
same,Anion Gap,Day 22,24
same,BUN,Day 22,17 mg/dL
same,BUN/Creatinine Ratio,Day 22,21.3
same,CPK,Day 22,96 U/L
same,Calcium,Day 22,10.8 mg/dL
same,Chloride,Day 22,113 mE/L
same,Cholesterol,Day 22,230 mg/dL
same,Creatinine,Day 22,0.8 mg/dL
same,Direct Billirubin,Day 22,0 mg/dL
same,"Eosinophils, (%)",Day 22,2%
same,"Eosinophils, absolute",Day 22,332
same,GGT,Day 22,3 U/L
same,Globulin,Day 22,2.8 g/dL
same,Glucose,Day 22,102 mg/dL
same,Hematocrit,Day 22,44.7%
same,Hemoglobin,Day 22,15.2 g/dL
same,Indirect Billirubin,Day 22,0.1 mg/dL
same,Lipase,Day 22,718 U/L
same,"Lymphocytes, (%)",Day 22,64%
same,"Lymphocytes, absolute",Day 22,10624
same,MCH,Day 22,24.3
same,MCHC,Day 22,34.1
same,MCV,Day 22,71
same,Na/K ratio,Day 22,26
same,"Neutrophils, (%)",Day 22,34%
same,"Neutrophils, absolute",Day 22,5644
same,Phosphorus,Day 22,3.6 mg/dL
same,Platelet count,Day 22,483 10^3/microl
same,Potassium,Day 22,5.7 mE/L
same,RBC,Day 22,6.26 10^6/microl
same,Sodium,Day 22,150 mE/L
same,T4,Day 22,1.8 µg/dL
same,Total Billirubin,Day 22,0.1 mg/dL
same,Total Protein,Day 22,6.1 g/dL
same,WBC,Day 22,16.6 10^3/microl
same,tCO2,Day 22,19 mEq/L
same,ALT (SGPT),Day 40,87 U/L
same,AST (SGOT),Day 40,20 U/L
same,Albumin,Day 40,3.4 g/dL
same,Albumin/Globulin Ratio,Day 40,1.1
same,Alkaline Phosphatase (ALP),Day 40,111 U/L
same,Anion Gap,Day 40,28
same,BUN,Day 40,22 mg/dL
same,BUN/Creatinine Ratio,Day 40,24.4
same,CPK,Day 40,124 U/L
same,Calcium,Day 40,11.0 mg/dL
same,Chloride,Day 40,110 mE/L
same,Cholesterol,Day 40,222 mg/dL
same,Creatinine,Day 40,0.9 mg/dL
same,Direct Billirubin,Day 40,0.1 mg/dL
same,"Eosinophils, (%)",Day 40,1%
same,"Eosinophils, absolute",Day 40,160
same,GGT,Day 40,2 U/L
same,Globulin,Day 40,3.0 g/dL
same,Glucose,Day 40,99 mg/dL
same,Hematocrit,Day 40,46.1%
same,Hemoglobin,Day 40,14.8 g/dL
same,Indirect Billirubin,Day 40,0 mg/dL
same,"Lymphocytes, (%)",Day 40,64%
same,"Lymphocytes, absolute",Day 40,10240
same,MCH,Day 40,23.7
same,MCHC,Day 40,32.2
same,MCV,Day 40,74
same,"Monocytes, (%)",Day 40,6%
same,"Monocytes, absolute",Day 40,960
same,Na/K ratio,Day 40,26
same,"Neutrophils, (%)",Day 40,29%
same,"Neutrophils, absolute",Day 40,4640
same,Phosphorus,Day 40,4.6 mg/dL
same,Platelet count,Day 40,511 10^3/microl
same,Potassium,Day 40,5.7 mE/L
same,RBC,Day 40,6.26 10^6/microl
same,Sodium,Day 40,151 mE/L
same,Total Billirubin,Day 40,0.1 mg/dL
same,Total Protein,Day 40,6.4 g/dL
same,WBC,Day 40,16 10^3/microl
same,tCO2,Day 40,19 mEq/L
same,ALT (SGPT),Day 65,111 U/L
same,AST (SGOT),Day 65,28 U/L
same,Albumin,Day 65,3.5 g/dL
same,Albumin/Globulin Ratio,Day 65,1.5
same,Alkaline Phosphatase (ALP),Day 65,78 U/L
same,Amylase,Day 65,431 U/L
same,Anion Gap,Day 65,27
same,BUN,Day 65,30 mg/dL
same,BUN/Creatinine Ratio,Day 65,30
same,CPK,Day 65,120 U/L
same,Calcium,Day 65,10.5 mg/dL
same,Chloride,Day 65,109 mE/L
same,Cholesterol,Day 65,169 mg/dL
same,Creatinine,Day 65,1.0 mg/dL
same,Direct Billirubin,Day 65,0.1 mg/dL
same,"Eosinophils, (%)",Day 65,1%
same,"Eosinophils, absolute",Day 65,211
same,GGT,Day 65,7 U/L
same,Globulin,Day 65,2.4 g/dL
same,Glucose,Day 65,94 mg/dL
same,Hematocrit,Day 65,44.6%
same,Hemoglobin,Day 65,14.3 g/dL
same,Indirect Billirubin,Day 65,0 mg/dL
same,Lipase,Day 65,449 U/L
same,"Lymphocytes, (%)",Day 65,61%
same,"Lymphocytes, absolute",Day 65,12871
same,MCH,Day 65,23.5
same,MCHC,Day 65,32.1
same,MCV,Day 65,73
same,Na/K ratio,Day 65,29
same,"Neutrophils, (%)",Day 65,38%
same,"Neutrophils, absolute",Day 65,8018
same,Phosphorus,Day 65,4.4 mg/dL
same,Platelet count,Day 65,404 10^3/microl
same,Potassium,Day 65,5.2 mE/L
same,RBC,Day 65,6.09 10^6/microl
same,Sodium,Day 65,150 mE/L
same,T4,Day 65,1.6 µg/dL
same,Total Billirubin,Day 65,0.1 mg/dL
same,Total Protein,Day 65,5.9 g/dL
same,WBC,Day 65,21.1 10^3/microl
same,tCO2,Day 65,19 mEq/L
same,ALT (SGPT),Day 103,95 U/L
same,AST (SGOT),Day 103,25 U/L
same,Albumin,Day 103,3.2 g/dL
same,Albumin/Globulin Ratio,Day 103,1.3
same,Alkaline Phosphatase (ALP),Day 103,58 U/L
same,Amylase,Day 103,745 U/L
same,Anion Gap,Day 103,27
same,BUN,Day 103,13 mg/dL
same,BUN/Creatinine Ratio,Day 103,16.3
same,CPK,Day 103,103 U/L
same,Calcium,Day 103,9.6 mg/dL
same,Chloride,Day 103,107 mE/L
same,Cholesterol,Day 103,146 mg/dL
same,Creatinine,Day 103,0.8 mg/dL
same,Direct Billirubin,Day 103,0.1 mg/dL
same,"Eosinophils, (%)",Day 103,1%
same,"Eosinophils, absolute",Day 103,165
same,GGT,Day 103,6 U/L
same,Globulin,Day 103,2.4 g/dL
same,Glucose,Day 103,107 mg/dL
same,Hematocrit,Day 103,40.7%
same,Hemoglobin,Day 103,13.4 g/dL
same,Indirect Billirubin,Day 103,0 mg/dL
same,Lipase,Day 103,630 U/L
same,"Lymphocytes, (%)",Day 103,71%
same,"Lymphocytes, absolute",Day 103,11715
same,MCH,Day 103,23.4
same,MCHC,Day 103,32.9
same,MCV,Day 103,71
same,"Monocytes, (%)",Day 103,7%
same,"Monocytes, absolute",Day 103,1155
same,Na/K ratio,Day 103,28
same,"Neutrophils, (%)",Day 103,20%
same,"Neutrophils, absolute",Day 103,3300
same,Phosphorus,Day 103,3.7 mg/dL
same,Platelet count,Day 103,409 10^3/microl
same,Potassium,Day 103,5.2 mE/L
same,RBC,Day 103,5.72 10^6/microl
same,Sodium,Day 103,148 mE/L
same,T4,Day 103,1.4 µg/dL
same,Total Billirubin,Day 103,0.1 mg/dL
same,Total Protein,Day 103,5.6 g/dL
same,WBC,Day 103,16.5 10^3/microl
same,tCO2,Day 103,19 mEq/L
same,ALT (SGPT),Day 128,89 U/L
same,AST (SGOT),Day 128,23 U/L
same,Albumin,Day 128,3.0 g/dL
same,Albumin/Globulin Ratio,Day 128,1.2
same,Alkaline Phosphatase (ALP),Day 128,45 U/L
same,Amylase,Day 128,633 U/L
same,Anion Gap,Day 128,22
same,BUN,Day 128,24 mg/dL
same,BUN/Creatinine Ratio,Day 128,30
same,CPK,Day 128,53 U/L
same,Calcium,Day 128,9.9 mg/dL
same,Chloride,Day 128,116 mE/L
same,Cholesterol,Day 128,133 mg/dL
same,Creatinine,Day 128,0.8 mg/dL
same,Direct Billirubin,Day 128,0.1 mg/dL
same,"Eosinophils, (%)",Day 128,2%
same,"Eosinophils, absolute",Day 128,330
same,GGT,Day 128,13 U/L
same,Globulin,Day 128,2.6 g/dL
same,Glucose,Day 128,116 mg/dL
same,Hematocrit,Day 128,38.1%
same,Hemoglobin,Day 128,12.3 g/dL
same,Indirect Billirubin,Day 128,0 mg/dL
same,Lipase,Day 128,415 U/L
same,"Lymphocytes, (%)",Day 128,46%
same,"Lymphocytes, absolute",Day 128,7774
same,MCH,Day 128,22.6
same,MCHC,Day 128,32.2
same,MCV,Day 128,70
same,"Monocytes, (%)",Day 128,5%
same,"Monocytes, absolute",Day 128,845
same,Na/K ratio,Day 128,31
same,"Neutrophils, (%)",Day 128,47%
same,"Neutrophils, absolute",Day 128,7943
same,Phosphorus,Day 128,3.1 mg/dL
same,Platelet count,Day 128,508 10^3/microl
same,Potassium,Day 128,4.8 mE/L
same,RBC,Day 128,5.44 10^6/microl
same,Sodium,Day 128,151 mE/L
same,T4,Day 128,1.1 µg/dL
same,Total Billirubin,Day 128,0.1 mg/dL
same,Total Protein,Day 128,5.6 g/dL
same,WBC,Day 128,16.9 10^3/microl
same,tCO2,Day 128,19 mEq/L
same,general condition,during the first treatment course,steady improvement
same,progression of the disease,"during the second treatment course, not to the degree of the first course",slowed down
